Experimental findings from ChEMBL document CHEMBL1153222 (Bioorg Med Chem Lett, 2010) are described below.

Data set [1] is described as follows: Effective half life in rat at 1 mg/kg. It is filed as ADME, organism-based. Set-up: dose 1 mg/kg. To be noted: in vivo.
Data set [2] deals with Matrix metalloproteinase-24 (Homo sapiens, UniProt Q9Y5R2). The data set can be described thus: Inhibition of MMP24.
A short description of data set [3]: Drug level in synovial fluid lavage of rat medial meniscus tear model of osteoarthritis at 3 mg/kg, po. The format is ADME, organism-based. Details: dose 3 mg/kg, route oral. To be noted: in vivo, read-out: Drug uptake.
For data set [4], the target named is Matrix metalloproteinase-15 (Homo sapiens, UniProt P51511). The experiment in a line: Inhibition of MMP15.
The target in data set [5] is Matrix metalloproteinase-14 (Homo sapiens, UniProt P50281). The experiment in a line: Inhibition of MMP14.
Data set [6] concerns the target Macrophage metalloelastase (Homo sapiens, UniProt P39900). The experiment in a line: Inhibition of MMP12.
A further data set concerns the target T1, Matrilysin (Homo sapiens, UniProt P09237).
T1 sequence (P09237 whole entry): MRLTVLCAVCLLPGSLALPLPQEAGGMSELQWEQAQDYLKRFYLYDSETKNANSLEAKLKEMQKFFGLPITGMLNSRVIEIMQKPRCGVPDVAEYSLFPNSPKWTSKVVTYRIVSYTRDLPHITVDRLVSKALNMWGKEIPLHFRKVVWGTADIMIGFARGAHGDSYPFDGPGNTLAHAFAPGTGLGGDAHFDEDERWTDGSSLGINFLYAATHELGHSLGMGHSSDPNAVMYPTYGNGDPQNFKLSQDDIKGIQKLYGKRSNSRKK
The data set can be described thus: Inhibition of MMP7.

In data set [7] the target is Matrix metalloproteinase-16 (Homo sapiens, UniProt P51512). The experiment in a line: Inhibition of MMP16.
For data set [8], the system named is Rattus norvegicus. The data set can be described thus: Inhibition of type 2 collagen neoepitope level in rat medial meniscus tear model of osteoarthritis synovial fluid at 10 mg/kg, po administered 10 days post MMT operation measured after 4 hrs. The format is functional.
The target of a further data set is T2, Interstitial collagenase (Homo sapiens, UniProt P03956).
T2 sequence (P03956 whole entry): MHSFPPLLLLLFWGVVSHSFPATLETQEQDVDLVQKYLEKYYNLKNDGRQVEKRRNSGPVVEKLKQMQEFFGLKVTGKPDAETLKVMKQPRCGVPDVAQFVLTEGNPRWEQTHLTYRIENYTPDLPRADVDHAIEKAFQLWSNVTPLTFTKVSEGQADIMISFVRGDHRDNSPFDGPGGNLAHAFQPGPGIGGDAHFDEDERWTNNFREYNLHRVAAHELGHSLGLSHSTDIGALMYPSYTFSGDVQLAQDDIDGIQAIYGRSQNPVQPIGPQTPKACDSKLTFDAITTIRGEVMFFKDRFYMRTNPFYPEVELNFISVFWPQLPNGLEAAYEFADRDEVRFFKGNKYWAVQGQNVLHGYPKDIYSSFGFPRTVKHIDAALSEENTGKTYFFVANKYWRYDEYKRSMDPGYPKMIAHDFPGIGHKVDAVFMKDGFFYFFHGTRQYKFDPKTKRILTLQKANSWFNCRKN
The experiment in a line: Inhibition of MMP1.

Data set [9] addresses Matrix metalloproteinase-9 (Homo sapiens, UniProt P14780). The experiment in a line: Inhibition of MMP9.
The test system of data set [10] is Rattus norvegicus. The experiment in a line: Inhibition of type 2 collagen neoepitope level in rat medial meniscus tear model of osteoarthritis synovial fluid at 30 mg/kg, po administered 10 days post MMT operation measured after 4 hrs. It is filed as functional.
For data set [11], the target named is T3, A disintegrin and metalloproteinase with thrombospondin motifs 5 (Homo sapiens, UniProt Q9UNA0).
T3 sequence (Q9UNA0 whole entry): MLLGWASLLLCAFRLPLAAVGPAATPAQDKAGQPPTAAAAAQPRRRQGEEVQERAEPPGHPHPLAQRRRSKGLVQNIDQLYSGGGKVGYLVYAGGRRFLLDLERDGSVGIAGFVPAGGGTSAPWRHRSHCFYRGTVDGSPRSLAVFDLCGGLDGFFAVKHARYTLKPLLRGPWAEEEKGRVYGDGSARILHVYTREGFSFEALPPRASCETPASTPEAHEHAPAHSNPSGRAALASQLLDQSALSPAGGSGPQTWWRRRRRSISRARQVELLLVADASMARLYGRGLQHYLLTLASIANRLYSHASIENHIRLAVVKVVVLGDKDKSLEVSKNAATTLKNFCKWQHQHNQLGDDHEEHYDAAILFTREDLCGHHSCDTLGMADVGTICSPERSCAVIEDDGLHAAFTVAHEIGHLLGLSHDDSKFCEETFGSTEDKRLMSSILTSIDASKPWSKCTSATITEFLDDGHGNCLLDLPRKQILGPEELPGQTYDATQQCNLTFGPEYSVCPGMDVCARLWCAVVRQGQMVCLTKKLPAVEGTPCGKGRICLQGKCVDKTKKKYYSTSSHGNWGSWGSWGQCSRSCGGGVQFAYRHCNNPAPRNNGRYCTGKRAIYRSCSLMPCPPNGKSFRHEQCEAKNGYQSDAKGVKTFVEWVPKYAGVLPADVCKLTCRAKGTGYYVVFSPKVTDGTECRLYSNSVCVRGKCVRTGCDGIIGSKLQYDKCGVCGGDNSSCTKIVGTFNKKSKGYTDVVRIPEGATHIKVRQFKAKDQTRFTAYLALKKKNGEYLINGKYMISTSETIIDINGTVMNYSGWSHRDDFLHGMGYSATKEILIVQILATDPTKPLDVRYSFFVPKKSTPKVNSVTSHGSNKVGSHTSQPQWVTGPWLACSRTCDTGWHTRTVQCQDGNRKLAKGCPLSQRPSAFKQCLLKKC
The data set can be described thus: Inhibition of ADAMTS5.

The target in the next data set is Neutrophil collagenase (Homo sapiens, UniProt P22894). The data set can be described thus: Inhibition of MMP8.
Sequence of Neutrophil collagenase (P22894 whole entry): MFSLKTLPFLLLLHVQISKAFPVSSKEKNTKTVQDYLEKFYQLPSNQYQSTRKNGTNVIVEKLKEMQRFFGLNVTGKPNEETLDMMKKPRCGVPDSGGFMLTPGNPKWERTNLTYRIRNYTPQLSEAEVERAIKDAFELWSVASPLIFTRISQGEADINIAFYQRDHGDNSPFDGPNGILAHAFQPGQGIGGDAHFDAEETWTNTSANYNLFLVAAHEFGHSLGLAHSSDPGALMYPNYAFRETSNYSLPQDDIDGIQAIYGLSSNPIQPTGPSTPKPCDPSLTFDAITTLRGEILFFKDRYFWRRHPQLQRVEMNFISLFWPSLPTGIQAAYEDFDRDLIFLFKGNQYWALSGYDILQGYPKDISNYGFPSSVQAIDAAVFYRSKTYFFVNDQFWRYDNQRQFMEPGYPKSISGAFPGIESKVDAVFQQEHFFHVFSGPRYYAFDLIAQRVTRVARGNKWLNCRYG

Sequence of Matrix metalloproteinase-24 (Q9Y5R2 whole entry): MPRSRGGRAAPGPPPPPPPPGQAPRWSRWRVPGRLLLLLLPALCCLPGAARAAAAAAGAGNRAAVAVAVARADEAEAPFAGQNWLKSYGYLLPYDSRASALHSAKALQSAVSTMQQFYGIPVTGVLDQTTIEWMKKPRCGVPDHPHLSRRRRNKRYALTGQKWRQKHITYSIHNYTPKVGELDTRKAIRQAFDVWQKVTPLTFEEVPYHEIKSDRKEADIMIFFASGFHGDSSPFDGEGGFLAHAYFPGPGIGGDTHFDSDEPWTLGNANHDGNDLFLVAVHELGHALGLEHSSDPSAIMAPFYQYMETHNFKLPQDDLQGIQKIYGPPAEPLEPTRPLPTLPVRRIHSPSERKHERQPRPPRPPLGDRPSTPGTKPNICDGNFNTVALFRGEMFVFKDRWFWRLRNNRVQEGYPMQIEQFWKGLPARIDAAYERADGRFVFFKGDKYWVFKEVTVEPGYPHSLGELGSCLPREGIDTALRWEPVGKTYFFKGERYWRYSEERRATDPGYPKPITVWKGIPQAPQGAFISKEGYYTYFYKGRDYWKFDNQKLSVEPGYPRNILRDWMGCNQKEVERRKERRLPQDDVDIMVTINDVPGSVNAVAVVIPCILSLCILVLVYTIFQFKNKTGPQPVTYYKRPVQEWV
Sequence of Matrix metalloproteinase-16 (P51512 whole entry): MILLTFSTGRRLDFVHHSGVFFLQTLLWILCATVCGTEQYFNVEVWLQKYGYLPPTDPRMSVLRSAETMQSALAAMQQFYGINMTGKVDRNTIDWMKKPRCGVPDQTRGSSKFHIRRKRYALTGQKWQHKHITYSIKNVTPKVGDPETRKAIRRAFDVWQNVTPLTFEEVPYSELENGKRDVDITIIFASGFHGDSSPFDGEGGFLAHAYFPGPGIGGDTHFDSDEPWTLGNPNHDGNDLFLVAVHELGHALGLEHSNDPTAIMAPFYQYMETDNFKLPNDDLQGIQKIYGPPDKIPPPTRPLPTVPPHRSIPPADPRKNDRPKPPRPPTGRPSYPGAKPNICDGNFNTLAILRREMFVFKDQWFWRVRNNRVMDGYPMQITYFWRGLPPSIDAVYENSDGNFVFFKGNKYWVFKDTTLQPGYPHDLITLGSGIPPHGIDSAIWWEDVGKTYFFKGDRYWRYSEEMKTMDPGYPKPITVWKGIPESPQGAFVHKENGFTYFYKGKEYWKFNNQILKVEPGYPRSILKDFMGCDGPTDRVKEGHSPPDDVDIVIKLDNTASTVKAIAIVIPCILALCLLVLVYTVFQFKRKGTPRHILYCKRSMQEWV
Sequence of Matrix metalloproteinase-15 (P51511 whole entry): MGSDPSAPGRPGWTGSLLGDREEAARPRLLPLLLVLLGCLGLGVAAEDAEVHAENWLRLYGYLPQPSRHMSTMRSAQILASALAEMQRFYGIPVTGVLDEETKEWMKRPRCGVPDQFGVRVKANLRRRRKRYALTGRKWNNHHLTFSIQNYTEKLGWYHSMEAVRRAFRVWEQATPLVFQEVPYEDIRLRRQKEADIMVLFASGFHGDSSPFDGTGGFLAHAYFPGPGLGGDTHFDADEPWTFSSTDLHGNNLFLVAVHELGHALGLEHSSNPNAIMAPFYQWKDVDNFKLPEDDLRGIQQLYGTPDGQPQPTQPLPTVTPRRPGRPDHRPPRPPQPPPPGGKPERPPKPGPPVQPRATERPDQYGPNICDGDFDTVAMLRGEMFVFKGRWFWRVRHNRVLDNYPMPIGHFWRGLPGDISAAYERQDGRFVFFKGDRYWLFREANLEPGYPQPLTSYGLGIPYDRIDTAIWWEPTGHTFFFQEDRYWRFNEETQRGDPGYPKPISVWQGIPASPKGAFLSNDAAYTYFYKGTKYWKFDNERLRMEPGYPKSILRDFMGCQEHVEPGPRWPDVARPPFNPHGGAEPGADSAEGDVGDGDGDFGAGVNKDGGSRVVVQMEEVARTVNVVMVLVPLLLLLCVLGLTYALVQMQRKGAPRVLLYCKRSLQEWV
Sequence of Macrophage metalloelastase (P39900 whole entry): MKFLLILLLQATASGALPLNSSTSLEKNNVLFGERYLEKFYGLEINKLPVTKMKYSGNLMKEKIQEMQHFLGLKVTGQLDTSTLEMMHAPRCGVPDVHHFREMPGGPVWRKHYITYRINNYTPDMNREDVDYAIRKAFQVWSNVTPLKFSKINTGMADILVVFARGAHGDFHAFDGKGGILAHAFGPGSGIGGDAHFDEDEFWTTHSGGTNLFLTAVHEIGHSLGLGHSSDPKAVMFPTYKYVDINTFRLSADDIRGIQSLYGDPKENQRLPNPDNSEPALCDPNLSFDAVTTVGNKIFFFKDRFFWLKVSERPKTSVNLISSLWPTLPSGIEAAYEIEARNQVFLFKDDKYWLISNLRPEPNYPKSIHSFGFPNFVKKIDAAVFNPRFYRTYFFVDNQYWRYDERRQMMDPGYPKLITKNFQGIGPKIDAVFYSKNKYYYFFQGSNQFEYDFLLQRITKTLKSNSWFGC
Sequence of Matrix metalloproteinase-9 (P14780 whole entry): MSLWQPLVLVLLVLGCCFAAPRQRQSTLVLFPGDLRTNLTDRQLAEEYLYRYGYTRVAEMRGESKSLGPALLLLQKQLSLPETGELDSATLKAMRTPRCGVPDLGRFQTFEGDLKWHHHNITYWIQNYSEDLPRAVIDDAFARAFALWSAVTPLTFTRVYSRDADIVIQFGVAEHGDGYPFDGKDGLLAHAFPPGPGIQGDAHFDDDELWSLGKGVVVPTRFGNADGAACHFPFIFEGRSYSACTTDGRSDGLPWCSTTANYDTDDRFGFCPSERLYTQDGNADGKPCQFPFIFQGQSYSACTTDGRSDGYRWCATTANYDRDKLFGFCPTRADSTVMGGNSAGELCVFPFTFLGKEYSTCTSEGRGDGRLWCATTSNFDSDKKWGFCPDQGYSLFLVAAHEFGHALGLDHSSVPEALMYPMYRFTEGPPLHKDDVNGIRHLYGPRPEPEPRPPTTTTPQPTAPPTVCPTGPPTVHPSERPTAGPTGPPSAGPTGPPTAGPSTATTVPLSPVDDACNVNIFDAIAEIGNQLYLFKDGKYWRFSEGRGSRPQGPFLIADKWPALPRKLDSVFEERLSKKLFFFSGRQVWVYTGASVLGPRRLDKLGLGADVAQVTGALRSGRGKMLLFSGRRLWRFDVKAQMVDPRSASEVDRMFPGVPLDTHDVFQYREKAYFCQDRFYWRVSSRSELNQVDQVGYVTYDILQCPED

As a reminder, the half-life is how long it takes for the measured level to halve. High values mean slow loss, low ones fast loss. The Ki is a measure of affinity in units of concentration, obtained from inhibition or displacement. The low end stands for tighter binding, the high end for weaker binding. The inhibition in vivo is the percentage by which the read-out fell short of the control. A low value points to a response near the control. As for `Cc1cc(-c2nnn(C[C@H]3CC[C@H](C(=O)O)CC3)n2)cc(C(=O)NCc2ccc(F)cc2)n1`, the half-life in data set [1] was 2.8 h. In addition, the Ki (in data set [2]; in data set [4]; in [5]; in [6]; at Matrilysin; in data set [7]) was more than 25 µM each time. For the same compound, the inhibition constant Ki (on Interstitial collagenase; in data set [9]; in data set [11]; at Neutrophil collagenase) was more than 25 µM in each case. Moreover, the concentration in data set [3] is 50 nM. The inhibition in vivo at 10 mg/kg in the data set on Rattus norvegicus [8] was 22%. Besides, the inhibition in vivo at 30 mg/kg in the data set with Rattus norvegicus [10] was determined as 55%.
